Columns and labels:
Assay in all cases: viability relative to DMSO control (fraction); higher = less drug effect (more viable cells)
Details in all cases: 48 h
[1] = test system: primary AML patient cells (S002)
Summary of the method: (§1)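 Using 384-well plates with compounds already plated at five concentrations, one well per concentration, 4 × 10^4 primary mononuclear tumour cells were added per well. Cells were Ficoll-isolated from blood or bone marrow or came from processed lymph node, fresh or cryopreserved. They were kept for 48 h at 37 °C and 5% CO2 in RPMI-1640 supplemented with penicillin/streptomycin, L-glutamine and human serum, and viability was read as CellTiter-Glo luminescence relative to the median of 16 inner DMSO wells.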

[2] = test system: primary AML patient cells (S006)
Summary of the method: as §1

[3] = test system: primary AML patient cells (S011)
Summary of the method: as §1

[4] = test system: primary AML patient cells (S012)
Summary of the method: as §1

[5] = test system: primary AML patient cells (S017)
Summary of the method: as §1

[6] = test system: primary AML patient cells (S019)
Summary of the method: as §1

[7] = test system: primary AML patient cells (S021)
Summary of the method: as §1

[8] = test system: primary AML patient cells (S025)
Summary of the method: as §1

[9] = test system: primary AML patient cells (S037)
Summary of the method: as §1

[10] = test system: primary AML patient cells (S081)
Summary of the method: as §1

[11] = test system: primary AML patient cells (S085)
Summary of the method: as §1

[12] = test system: primary AML patient cells (S089)
Summary of the method: as §1

[13] = test system: primary AML patient cells (S091)
Summary of the method: as §1

[14] = test system: primary CLL patient cells (S043)
Summary of the method: as §1

O=C1c2c(O)ccc(O)c2C(=O)c2c(NCCNCCO)ccc(NCCNCCO)c21 [Mitoxantrone]
viability ([1]; 0.008 µM): 0.744
viability ([1]; 0.04 µM): 0.443
viability ([1]; 0.2 µM): 0.332
viability ([1]; 1 µM): 0.334
viability ([1]; 5 µM): 0.22
viability ([2]; 0.008 µM): 0.426
viability ([2]; 0.04 µM): 0.155
viability ([2]; 0.2 µM): 0.0754
viability ([2]; 1 µM): 0.0534
viability ([2]; 5 µM): 0.0375
viability ([3]; 0.008 µM): 0.818
viability ([3]; 0.04 µM): 0.384
viability ([3]; 0.2 µM): 0.203
viability ([3]; 1 µM): 0.041
viability ([3]; 5 µM): 0.0174
viability ([4]; 0.008 µM): 0.991
viability ([4]; 0.04 µM): 0.995
viability ([4]; 0.2 µM): 0.978
viability ([4]; 1 µM): 0.862
viability ([4]; 5 µM): 0.0416
viability ([5]; 0.008 µM): 0.952
viability ([5]; 0.04 µM): 0.811
viability ([5]; 0.2 µM): 0.608
viability ([5]; 1 µM): 0.126
viability ([5]; 5 µM): 0.0293
viability ([6]; 0.008 µM): 0.647
viability ([6]; 0.04 µM): 0.256
viability ([6]; 0.2 µM): 0.282
viability ([6]; 1 µM): 0.132
viability ([6]; 5 µM): 0.0646
viability ([7]; 0.008 µM): 0.66
viability ([7]; 0.04 µM): 0.327
viability ([7]; 0.2 µM): 0.265
viability ([7]; 1 µM): 0.212
viability ([7]; 5 µM): 0.106
viability ([8]; 0.008 µM): 0.539
viability ([8]; 0.04 µM): 0.399
viability ([8]; 0.2 µM): 0.533
viability ([8]; 1 µM): 0.0658
viability ([8]; 5 µM): 0.0287
viability ([9]; 0.008 µM): 0.843
viability ([9]; 0.04 µM): 0.581
viability ([9]; 0.2 µM): 0.447
viability ([9]; 1 µM): 0.345
viability ([9]; 5 µM): 0.211
viability ([10]; 0.008 µM): 0.995
viability ([10]; 0.04 µM): 1.01
viability ([10]; 0.2 µM): 1.09
viability ([10]; 1 µM): 0.167
viability ([10]; 5 µM): 0.0158
viability ([11]; 0.008 µM): 0.538
viability ([11]; 0.04 µM): 0.295
viability ([11]; 0.2 µM): 0.277
viability ([11]; 1 µM): 0.065
viability ([11]; 5 µM): 0.0217
viability ([12]; 0.008 µM): 0.339
viability ([12]; 0.04 µM): 0.966
viability ([12]; 0.2 µM): 0.0966
viability ([12]; 1 µM): 0.0273
viability ([12]; 5 µM): 0.0313
viability ([13]; 0.008 µM): 0.494
viability ([13]; 0.04 µM): 0.563
viability ([13]; 0.2 µM): 0.46
viability ([13]; 1 µM): 0.118
viability ([13]; 5 µM): 0.0676
viability ([14]; 0.008 µM): 0.739
viability ([14]; 0.04 µM): 0.849
viability ([14]; 0.2 µM): 0.488
viability ([14]; 1 µM): 0.0542
viability ([14]; 5 µM): 0.0236

— the supplement of paper PMC10733146
